According to patent US11247970B2, “Selective inhibition of gluconeogenic activity” (Dana-Farber Cancer Institute, Inc., priority 2017, dated 2022):
“Also recorded” adds a separate entry of the source.

Columns and labels:
PGC-1α = biological target: T1, PGC-1α (Mus musculus, UniProt O70343); experiment: Mass spectrometry of acetylated PGC-1α lysine residues; format: cell-based; design: expressed in transfected cells; host or cells: U-2 OS cells infected with Ad-PGC-1α and Ad-GCN5; details: U-2 OS, Ad-PGC-1α and Ad-GCN5, 18 h
T1 sequence (O70343 1-797): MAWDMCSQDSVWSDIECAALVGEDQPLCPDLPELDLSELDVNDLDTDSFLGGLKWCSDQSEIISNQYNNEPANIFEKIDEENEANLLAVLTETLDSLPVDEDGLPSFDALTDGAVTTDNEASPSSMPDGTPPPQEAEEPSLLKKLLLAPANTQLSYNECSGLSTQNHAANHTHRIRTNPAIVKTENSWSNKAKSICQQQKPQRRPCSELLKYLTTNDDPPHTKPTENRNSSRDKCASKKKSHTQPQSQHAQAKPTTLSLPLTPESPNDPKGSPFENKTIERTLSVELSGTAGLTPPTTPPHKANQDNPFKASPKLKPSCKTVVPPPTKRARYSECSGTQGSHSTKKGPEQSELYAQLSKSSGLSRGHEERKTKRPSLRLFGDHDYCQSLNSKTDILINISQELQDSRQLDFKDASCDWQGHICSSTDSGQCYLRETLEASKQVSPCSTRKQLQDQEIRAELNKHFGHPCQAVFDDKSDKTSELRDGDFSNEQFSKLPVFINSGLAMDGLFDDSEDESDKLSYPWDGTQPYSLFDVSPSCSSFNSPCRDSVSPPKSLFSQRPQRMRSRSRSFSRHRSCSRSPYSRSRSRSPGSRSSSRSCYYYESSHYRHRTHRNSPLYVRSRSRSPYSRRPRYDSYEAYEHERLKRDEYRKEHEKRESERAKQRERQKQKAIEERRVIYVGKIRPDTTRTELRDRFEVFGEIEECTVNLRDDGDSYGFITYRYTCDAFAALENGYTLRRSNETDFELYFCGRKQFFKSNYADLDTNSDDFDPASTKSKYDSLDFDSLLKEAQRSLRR
Protocol: Gel bands were dehydrated with acetonitrile, dried and resuspended in 50 mM ammonium bicarbonate (pH 8.0) containing 500 ng of sequencing-grade trypsin (Promega) and incubated at 37° C. for 8 hours. Digested samples were then loaded onto StageTips and desalted. Peptides were eluted with 50% acetonitrile, 5% formic acid, dried using a Speed-Vac apparatus, and resuspended in 25 μl of HEPES, pH 8.5. Peptides were labeled with 6-plex tandem mass tag (TMT) reagents (Thermo Scientific, Rockford, Ill.). After 1 hour of incubation at room temperature, the reaction was quenched with hydroxylamine and acidification with formic acid to pH˜2. TMT labeled peptides were combined, desalted by StageTips, dried and resuspended in 10 μl of 1% formic acid. All spectra were acquired using an Oribtrap Fusion mass spectrometer (Thermo Scientific) in line with an Easy-nLC 1200 (Thermo Fisher Scientific) ultra-high pressure liquid chromatography (UHPLC) pump. […] For MS3 based TMT quantitation, MS2 spectra were collected at an AGC of 4000, max injection time of 150 ms, and CID collision energy set at 35%. […] For quantification, a 0.03 m/z window centered on the theoretical DA value of each reporter ion was utilized for the nearest maximal signal intensity. […]

[1] = Liver and serum lipids, metabolites and liver gene expression in treated HFD mice; format: in vivo
Protocol: Total RNA was extracted from cells or pulverized liver using TRIzol reagent (Ambion, Life Technologies), followed by cDNA preparation from 2 μg of total RNA with a High-Capacity cDNA Reverse Transcription Kit (Applied Biosystems). cDNA products were quantified by real-time PCR using Power SYBR Green PCR Master Mix (Applied Biosystems) on a CFX384 Real-Time PCR System (Bio-Rad). To calculate IC50 from C-80 dose response, curves were fit to the hill equation in a similar manner used to calculate estimated AC50 from the high-throughput qPCR screen. However, unlike the curves from the qPCR high-throughput screen, values of relative repression were used rather than of delta-Ct.
Serum samples were gathered from blood collected by cardiac puncture. Insulin was measured with Ultra Sensitive Mouse Insulin ELISA Kit (Crystal Chem, 90080). Kits used to measure alanine transaminase (EALT-100), aspartate transaminase (EASTR-100), lactate dehydrogenase (DLDH-100) were purchased from Bioassay Systems. Kits used to measure lactate (MAK 064), b-hydroxybutyrate (MAK 041), Triglycerides (TR0100) were purchased from Sigma. Kit used to measure cholesterol (C7510) was purchased from Pointe Scientific. Kit used to measure non-esterified fatty acids was purchased from Wako.

SMILES: Cc1ccc(CN(CC(O)COc2cccc3[nH]ccc23)C(C)(C)C)cc1 (centres unmarked) [SR-18292, 1-((1H-indol-4-yl)oxy)-3-(tert-butyl(4-methylbenzyl)amino)propan-2-ol]
- number of PGC-1α lysine residues with increased acetylation (PGC-1α): 7
- serum lactate and ketone bodies (β-hydroxybutyrate) ([1]; HFD 4 weeks): not changed; also recorded: not altered
- serum levels of TG, free fatty acids and cholesterol ([1]; HFD 13 weeks): not significantly altered
- transcriptional lipid metabolic profile in liver ([1]; HFD 13 weeks): not significantly altered; also recorded: not changed
- liver TG and cholesterol levels ([1]; HFD 17 weeks, also after prolonged treatment): not changed
